For the experiment, the system named is L1210 leukemia ip in BDF1 mice, survival T/C. As to the kind of experiment: NCI In Vivo Anticancer Drug Screen. Data for tumor model L1210 Leukemia (intraperitoneal) in B6D2F1 (BDF1) mice. The following applies: endpoint: mean survival time, higher = longer survival. In short, it runs like this: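 Antitumor effect is assessed in tumor-bearing animals. Survival in the compound arm is compared with a vehicle-dosed control arm and expressed as their quotient.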

Setting [1] is: dose: 100.0 mg/kg/injection, schedule: Q01DX009 (ip), vehicle: gum acacia.
The mark [2] stands for this setting: dose: 100.0 mg/kg/injection, schedule: Q04DX003 (ip), vehicle: gum acacia.
[3] abbreviates: dose: 200.0 mg/kg/injection, schedule: Q01DX009 (ip), vehicle: gum acacia.
Setting [4] is: dose: 200.0 mg/kg/injection, schedule: Q04DX003 (ip), vehicle: gum acacia.
Where [5] appears, read: dose: 100.0 mg/kg/injection, schedule: Q04DX003 (ip), vehicle: saline.
The mark [6] stands for this setting: dose: 200.0 mg/kg/injection, schedule: Q04DX003 (ip), vehicle: saline.
The mark [7] stands for this setting: dose: 400.0 mg/kg/injection, schedule: Q04DX003 (ip), vehicle: saline.
Setting [8] is: dose: 50.0 mg/kg/injection, schedule: Q01DX009 (ip), vehicle: saline with Tween-80.
Where [9] appears, read: dose: 100.0 mg/kg/injection, schedule: Q01DX009 (ip), vehicle: saline with Tween-80.
Where [10] appears, read: dose: 200.0 mg/kg/injection, schedule: Q01DX009 (ip), vehicle: saline with Tween-80.
[11] abbreviates: dose: 400.0 mg/kg/injection, schedule: Q01DX009 (ip), vehicle: saline with Tween-80.

The structures appear in SMILES notation. Values joined by “and” are separate entries in the source; they are usually repeats but may differ in a detail not shown here. Equal entries are not always repeated. Toxic doses and inconclusive results are not listed.

On to `Clc1ncc(Br)c(Cl)n1`, for which the T/C (dose: 6.25 mg/kg/injection, schedule: Q01DX009 (ip), vehicle: Klucel (hydroxypropylcellulose) (HPC)) is 102 % of control; the T/C (dose: 12.5 mg/kg/injection, schedule: Q01DX009 (ip), vehicle: Klucel (hydroxypropylcellulose) (HPC)) was 102 % of control; the T/C (dose: 25.0 mg/kg/injection, schedule: Q01DX009 (ip), vehicle: Klucel (hydroxypropylcellulose) (HPC)) was 101 % of control; the T/C (dose: 100.0 mg/kg/injection, schedule: Q04DX003 (ip), vehicle: other) is 119 % of control; the T/C (dose: 200.0 mg/kg/injection, schedule: Q04DX003 (ip), vehicle: other) was 90 % of control.
Consider `O=S(=O)(Cc1ccc(Cl)cc1)c1ccccc1-n1cccc1`, for which the T/C was 90 % of control (dose: 100.0 mg/kg/injection, schedule: Q04DX003 (ip), vehicle: Klucel (hydroxypropylcellulose) (HPC)); 92 % of control (dose: 200.0 mg/kg/injection, schedule: Q04DX003 (ip), vehicle: Klucel (hydroxypropylcellulose) (HPC)); 100 % of control (dose: 400.0 mg/kg/injection, schedule: Q04DX003 (ip), vehicle: Klucel (hydroxypropylcellulose) (HPC)).
`C[C@@H]1C[C@@]2(C)[C@@H](CC[C@@H]3[C@@H]2CC[C@]2(C)[C@@H](O)CC[C@@H]32)CC1=O`: the T/C by setting is: (dose: 100.0 mg/kg/injection, schedule: Q01DX Z (sc), vehicle: steriod suspending solution) 105 % of control; (dose: 200.0 mg/kg/injection, schedule: Q01DX Z (sc), vehicle: steriod suspending solution) 108 % of control; (dose: 400.0 mg/kg/injection, schedule: Q01DX Z (sc), vehicle: steriod suspending solution) 105 % of control; (dose: 800.0 mg/kg/injection, schedule: Q01DX Z (sc), vehicle: steriod suspending solution) 105 % of control.
Turning to `c1cncc(Nc2c3ccccc3nc3ccccc23)c1`, the T/C is, setting by setting: (dose: 100.0 mg/kg/injection, schedule: Q01DX001 (ip), vehicle: saline) 97 % of control; (dose: 200.0 mg/kg/injection, schedule: Q01DX001 (ip), vehicle: saline) 99 % of control; (dose: 400.0 mg/kg/injection, schedule: Q01DX001 (ip), vehicle: saline) 94 % of control.
On to `CCCCNC(=O)Nc1ccc(Nc2ccccc2)cc1`, for which the T/C is, setting by setting: under setting [1], 88 % of control; under setting [2], 88 % of control; under setting [3], 108 % of control; under setting [4], 96 % of control; (dose: 400.0 mg/kg/injection, schedule: Q04DX003 (ip), vehicle: gum acacia) 96 % of control.
Consider `Nc1ccc(Nc2ccccc2)c(S(=O)(=O)O)c1`, for which the T/C by setting is: (dose: 100.0 mg/kg/injection, schedule: Q01DX009 (ip), vehicle: saline) 107 % of control; under setting [5], 105 % of control; (dose: 200.0 mg/kg/injection, schedule: Q01DX009 (ip), vehicle: saline) 107 % of control; under setting [6], 92 % of control; (dose: 400.0 mg/kg/injection, schedule: Q01DX009 (ip), vehicle: saline) 110 % of control; under setting [7], 95 % of control.
As for `OCCCNCc1ccccc1`, the T/C reads like this: under setting [5], 94 % of control; under setting [6], 103 % of control; under setting [7], 97 % of control.
`COc1ccccc1N=Nc1cc(C)c(C)cc1O`: the T/C under setting [8] is 106 % of control, the T/C under setting [9] is 103 % of control and the T/C under setting [10] was 95 % of control.
`O=C(O)CCCOc1cc(Cl)c(Cl)cc1Cl`: the T/C reads like this: (dose: 50.0 mg/kg/injection, schedule: Q01DX001 (ip), vehicle: carboxymethylcellulose (CMC)) 88 % of control; (dose: 50.0 mg/kg/injection, schedule: Q01DX009 (ip), vehicle: gum acacia) 98 % of control; (dose: 50.0 mg/kg/injection, schedule: Q04DX003 (ip), vehicle: gum acacia) 96 % of control; (dose: 100.0 mg/kg/injection, schedule: Q01DX001 (ip), vehicle: carboxymethylcellulose (CMC)) 88 % of control; under setting [1], 100 % of control; under setting [2], 96 % of control. The T/C is 93 % of control under setting [3] and 104 % of control under setting [4].
As for `NNC(=O)C12CCCCC1CCC2` (stereo unspecified), the T/C is 88 % of control (dose: 100.0 mg/kg/injection, schedule: Q01DX009 (ip), vehicle: acetone); 100 % of control (dose: 100.0 mg/kg/injection, schedule: Q04DX003 (ip), vehicle: acetone); 100 % of control (dose: 200.0 mg/kg/injection, schedule: Q04DX003 (ip), vehicle: acetone); 87 % of control (dose: 400.0 mg/kg/injection, schedule: Q01DX009 (ip), vehicle: acetone); 105 % of control (dose: 400.0 mg/kg/injection, schedule: Q04DX003 (ip), vehicle: acetone).
Take `Cc1c2cnccc2c(C)c2c1c1ccccc1n2CCOC(=O)c1ccccc1`: the T/C is, setting by setting: under setting [8], 88 % of control; under setting [9], 98 % of control and 88 % of control; (dose: 100.0 mg/kg/injection, schedule: Q04DX003 (ip), vehicle: saline with Tween-80) 100 % of control; under setting [10], 93 % of control; (dose: 200.0 mg/kg/injection, schedule: Q04DX003 (ip), vehicle: saline with Tween-80) 97 % of control; under setting [11], 95 % of control. Also, the T/C (dose: 400.0 mg/kg/injection, schedule: Q04DX003 (ip), vehicle: saline with Tween-80) is 91 % of control.
In the case of `Nc1nc(SN=Nc2ccc(S(N)(=O)=O)cc2)c2[nH]cnc2n1`, the T/C is 110 % of control (dose: 0.16 mg/kg/injection, schedule: Q01DX Z (ip), vehicle: other); 111 % of control (dose: 1.5 mg/kg/injection, schedule: Q04DX003 (ip), vehicle: saline with Tween-80); 165 % of control (dose: 2.0 mg/kg/injection, schedule: Q01DX Z (ip), vehicle: methylcellulose (MC)); 154 % of control (dose: 3.0 mg/kg/injection, schedule: Q01DX Z (ip), vehicle: methylcellulose (MC)); 153 % of control (dose: 5.0 mg/kg/injection, schedule: Q01DX Z (ip), vehicle: other); 155 % of control (dose: 12.0 mg/kg/injection, schedule: Q04DX003 (ip), vehicle: saline with Tween-80). In addition, the T/C (dose: 17.0 mg/kg/injection, schedule: Q04DX003 (ip), vehicle: saline with Tween-80) was 158 % of control and 159 % of control; the T/C (dose: 20.0 mg/kg/injection, schedule: Q01DX Z (ip), vehicle: methylcellulose (MC)) was 124 % of control; the T/C (dose: 25.0 mg/kg/injection, schedule: Q04DX003 (ip), vehicle: saline with Tween-80) is 151 % of control and 190 % of control; the T/C (dose: 37.0 mg/kg/injection, schedule: Q04DX003 (ip), vehicle: saline with Tween-80) is 155 % of control and 164 % of control; the T/C (dose: 68.0 mg/kg/injection, schedule: Q01DX Z (ip), vehicle: other) is 109 % of control; the T/C (dose: 102.0 mg/kg/injection, schedule: Q01DX Z (ip), vehicle: other) was 102 % of control.
For `CCCCCCCCC(=O)N1CCC(C)CC1`, the T/C runs as follows: (dose: 200.0 mg/kg/injection, schedule: Q04DX002 (ip), vehicle: Klucel (hydroxypropylcellulose) (HPC)) 106 % of control; (dose: 400.0 mg/kg/injection, schedule: Q04DX002 (ip), vehicle: Klucel (hydroxypropylcellulose) (HPC)) 95 % of control.
As to `CC1(c2ccccc2)NC(=O)NC1=O` (stereo unspecified), the T/C (dose: 100.0 mg/kg/injection, schedule: Q01DX001 (ip), vehicle: Klucel (hydroxypropylcellulose) (HPC)) is 92 % of control; the T/C (dose: 200.0 mg/kg/injection, schedule: Q01DX001 (ip), vehicle: Klucel (hydroxypropylcellulose) (HPC)) was 95 % of control; the T/C (dose: 400.0 mg/kg/injection, schedule: Q01DX001 (ip), vehicle: Klucel (hydroxypropylcellulose) (HPC)) was 95 % of control.
As for `CC(=O)[C@H]1CC[C@H]2[C@@H]3CCC4=CC(=O)CC[C@]4(C)[C@H]3CC[C@]12C`, the T/C reads like this: (dose: 125.0 mg/kg/injection, schedule: Q01DX Z (sc), vehicle: steriod suspending solution) 97 % of control; (dose: 250.0 mg/kg/injection, schedule: Q01DX Z (sc), vehicle: steriod suspending solution) 91 % of control; (dose: 500.0 mg/kg/injection, schedule: Q01DX Z (sc), vehicle: steriod suspending solution) 96 % of control; (dose: 1000.0 mg/kg/injection, schedule: Q01DX Z (sc), vehicle: steriod suspending solution) 92 % of control.
`Cc1ccc2[nH]c(-c3ccccc3)c(-c3ccccc3)c2c1`: the T/C was 95 % of control under setting [9], 103 % of control under setting [10] and 95 % of control under setting [11].

The values are drawn from PubChem BioAssay AID248 (DTP/NCI, 2004).
